From patent US20060069132A1, “Azolecarboxamide herbicides” (priority 2004, published 2006)

Tests used:
cocklebur = experiment: Test B pre-/postemergence herbicide test; type: in vivo, Xanthium strumarium
How it was run: (§1)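 Herbicidal effect was judged by eye on a 0–100 scale after plants stood 13 to 15 days in the greenhouse following pre- or postemergence treatment with surfactant-containing formulations.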

barnyardgrass [1] = experiment: Test B pre-/postemergence herbicide test; type: in vivo, Echinochloa crus-galli
How it was run: as §1

giant foxtail = experiment: Test B pre-/postemergence herbicide test; type: in vivo, Setaria faberi
How it was run: (§2)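 Visual rating, 0 (no effect) to 100 (complete control), versus untreated controls after 13–15 d in greenhouse. Pre- and postemergence applications (postemergence plants 2–18 cm, 1–4 leaves); flooded paddy arm at 2-leaf stage. Compounds in non-phytotoxic solvent plus surfactant.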

corn = experiment: Test B pre-/postemergence herbicide test; type: in vivo, Zea mays
How it was run: as §2

blackgrass = experiment: Test B postemergence herbicide test; type: in vivo, Alopecurus myosuroides
How it was run: (§3)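 Treated at 2-leaf (paddy) or 1–4-leaf, 2–18 cm (postemergence); greenhouse 13–15 d; visual score vs control, 0 none to 100 complete control; dash = not tested.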

ducksalad = experiment: Test B flooded paddy test; type: in vivo, Heteranthera limosa; conditions: 1000 g ai/ha, scale 0 to 100 (0 no effect, 100 complete control)
How it was run: as §3

wheat = experiment: Test B postemergence herbicide test; type: in vivo, Triticum aestivum; parameters: key to Wheat plant response rating: 0 = no effect, 100 = complete control
How it was run: (§4)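 Formulated test chemicals went onto postemergence plants measuring 2 to 18 cm, at one to four leaves. For the paddy assay, species had reached two leaves. Scoring took place 13–15 days later by eye, relative to untreated plants, using 0 for no effect up to 100 for full control.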

pigweed = experiment: Test B pre-/postemergence herbicide test; type: in vivo, Amaranthus retroflexus
How it was run: as §2

lambsquarters = experiment: Test B pre-/postemergence herbicide test; type: in vivo, Chenopodium album
How it was run: as §2

velvetleaf = experiment: Test B pre-/postemergence herbicide test; type: in vivo, Abutilon theophrasti
How it was run: as §2

large crabgrass = experiment: Test B pre-/postemergence herbicide test; type: in vivo, Digitaria sanguinalis
How it was run: as §2

Surinam grass = experiment: Test B pre-/postemergence herbicide test; type: in vivo, Urochloa decumbens
How it was run: as §2

morningglory = experiment: Test B pre-/postemergence herbicide test; type: in vivo, Ipomoea coccinea
How it was run: as §1

[2] = test system: small flower umbrella sedge; experiment: Test B flooded paddy test; type: in vivo, Cyperus difformis; conditions: 1000 g ai/ha, scale 0 to 100 (0 no effect, 100 complete control)
How it was run: as §3

barnyardgrass [3] = experiment: Test B flooded paddy test; type: in vivo, Echinochloa crus-galli; conditions: 1000 g ai/ha, scale 0 to 100 (0 no effect, 100 complete control)
How it was run: as §3

rice [4] = experiment: Test B pre-/postemergence herbicide test; type: in vivo, Oryza sativa; conditions: 0 = no effect, 100 = complete control, preemergence; for Rice plant response rating (0 to 100 scale): 125 g ai/ha; for Plant response rating, Rice: 500 g ai/ha, visual rating
How it was run: as §2

rice [5] = experiment: Test B flooded paddy test; type: in vivo, Oryza sativa; conditions: 1000 g ai/ha, scale 0 to 100 (0 no effect, 100 complete control)
How it was run: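 Read-out: visual comparison with controls, scored 0 to 100, where 100 means complete control and 0 no effect. Formulated chemicals were applied postemergence to plants 2–18 cm tall (1- to 4-leaf), or to flooded-paddy plants at the 2-leaf stage, then held 13 to 15 days under glass.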

wild oat = experiment: Test B postemergence herbicide test; type: in vivo, Avena fatua
How it was run: as §4

[6] = 125 g ai/ha; 0 = no effect, 100 = complete control; preemergence
[7] = postemergence, 125 g ai/ha; visual rating, scale 0 (no effect) to 100 (complete control)
[8] = postemergence, 500 g ai/ha; visual rating, scale 0 (no effect) to 100 (complete control)
[9] = 500 g ai/ha; visual rating, 0 = no effect, 100 = complete control; preemergence
[10] = postemergence, 500 g ai/ha; scale 0 to 100, 0 is no effect, 100 is complete control
[11] = 125 g ai/ha; visual rating, scale 0 (no effect) to 100 (complete control); postemergence

C=CCN(CC=C)C(=O)c1cncc(NC(=O)c2cc(C(C)(C)C)nn2CC)c1 [Compound 262]
Cocklebur plant response rating (0 to 100 scale) (cocklebur; [6]): 0
Cocklebur plant response rating (cocklebur; [7]): 0
Cocklebur plant response rating (cocklebur; [8]): 10
Barnyardgrass plant response rating (0 to 100 scale) (barnyardgrass [1]; [6]): 0
Plant response rating, Barnyardgrass (barnyardgrass [1]; [9]): 10
Barnyardgrass plant response rating (barnyardgrass [1]; [7]): 0
Barnyardgrass plant response rating (barnyardgrass [1]; [8]): 10
Foxtail, Giant plant response rating (0 to 100 scale) (giant foxtail; [6]): 0
Plant response rating, Foxtail, Giant (giant foxtail; [9]): 0
Foxtail, Giant plant response rating (giant foxtail; [7]): 10
Foxtail, Giant plant response rating (giant foxtail; [10]): 20
Corn plant response rating (0 to 100 scale) (corn; [6]): 0
Plant response rating, Corn (corn; [9]): 0
Corn plant response rating (corn; [7]): 0
Corn plant response rating (corn; [10]): 20
Blackgrass plant response rating (blackgrass; [7]): 0
Blackgrass plant response rating (blackgrass; [8]): 20
Ducksalad plant response rating (ducksalad): 0
Wheat plant response rating (wheat; [7]): 0
Wheat plant response rating (wheat; [10]): 10
Pigweed plant response rating (0 to 100 scale) (pigweed; [6]): 50
Plant response rating, Pigweed (pigweed; [9]): 100
Pigweed plant response rating (pigweed; [7]): 70
Pigweed plant response rating (pigweed; [10]): 80
Lambsquarters plant response rating (0 to 100 scale) (lambsquarters; [6]): 40
Plant response rating, Lambsquarters (lambsquarters; [9]): 90
Lambsquarters plant response rating (lambsquarters; [7]): 50
Lambsquarters plant response rating (lambsquarters; [10]): 80
Velvetleaf plant response rating (0 to 100 scale) (velvetleaf; [6]): 0
Plant response rating, Velvetleaf (velvetleaf; [9]): 80
Velvetleaf plant response rating (velvetleaf; [7]): 20
Velvetleaf plant response rating (velvetleaf; [10]): 20
Crabgrass, Large plant response rating (0 to 100 scale) (large crabgrass; [6]): 0
Plant response rating, Crabgrass, Large (large crabgrass; [9]): 30
Crabgrass, Large plant response rating (large crabgrass; [7]): 0
Crabgrass, Large plant response rating (large crabgrass; [10]): 20
Surinam Grass plant response rating (0 to 100 scale) (Surinam grass; [6]): 0
Plant response rating, Surinam Grass (Surinam grass; [9]): 10
Surinam Grass plant response rating (Surinam grass; [7]): 0
Surinam Grass plant response rating (Surinam grass; [10]): 20
Morningglory plant response rating (0 to 100 scale) (morningglory; [6]): 0
Plant response rating, Morningglory (morningglory; [9]): 0
Morningglory plant response rating (morningglory; [7]): 0
Morningglory plant response rating (morningglory; [10]): 0
Sedge, Umbrella plant response rating [2]: 0
Barnyardgrass plant response rating (barnyardgrass [3]): 0
Rice plant response rating (0 to 100 scale) (rice [4]): 0
Plant response rating, Rice (rice [4]): 0
Rice plant response rating (rice [5]): 0
Oat, Wild plant response rating (wild oat; [7]): 0
Oat, Wild plant response rating (wild oat; [10]): 0

CCc1nn(C(C)(C)C)cc1C(=O)Nc1cccc(C(=O)N(C)C)n1 [Compound 292]
Cocklebur plant response rating (0 to 100 scale) (cocklebur; [6]): 0
Cocklebur plant response rating (cocklebur; [11]): 0
Plant response rating, Cocklebur (cocklebur; [9]): 40
Cocklebur plant response rating (cocklebur; [10]): 10
Barnyardgrass plant response rating (0 to 100 scale) (barnyardgrass [1]; [6]): 10
Barnyardgrass plant response rating (barnyardgrass [1]; [11]): 0
Plant response rating, Barnyardgrass (barnyardgrass [1]; [9]): 90
Barnyardgrass plant response rating (barnyardgrass [1]; [10]): 0
Foxtail, Giant plant response rating (0 to 100 scale) (giant foxtail; [6]): 0
Foxtail, Giant plant response rating (giant foxtail; [11]): 0
Plant response rating, Foxtail, Giant (giant foxtail; [9]): 70
Foxtail, Giant plant response rating (giant foxtail; [10]): 20
Corn plant response rating (0 to 100 scale) (corn; [6]): 0
Corn plant response rating (corn; [11]): 10
Plant response rating, Corn (corn; [9]): 80
Corn plant response rating (corn; [10]): 20
Blackgrass plant response rating (blackgrass; [11]): 10
Blackgrass plant response rating (blackgrass; [10]): 20
Ducksalad plant response rating (ducksalad): 0
Wheat plant response rating (wheat; [11]): 0
Wheat plant response rating (wheat; [10]): 20
Pigweed plant response rating (0 to 100 scale) (pigweed; [6]): 40
Pigweed plant response rating (pigweed; [11]): 20
Plant response rating, Pigweed (pigweed; [9]): 100
Pigweed plant response rating (pigweed; [10]): 30
Lambsquarters plant response rating (0 to 100 scale) (lambsquarters; [6]): 70
Lambsquarters plant response rating (lambsquarters; [11]): 30
Plant response rating, Lambsquarters (lambsquarters; [9]): 100
Lambsquarters plant response rating (lambsquarters; [10]): 70
Velvetleaf plant response rating (velvetleaf; [11]): 10
Plant response rating, Velvetleaf (velvetleaf; [9]): 70
Velvetleaf plant response rating (velvetleaf; [10]): 10
Crabgrass, Large plant response rating (0 to 100 scale) (large crabgrass; [6]): 80
Crabgrass, Large plant response rating (large crabgrass; [11]): 0
Plant response rating, Crabgrass, Large (large crabgrass; [9]): 100
Crabgrass, Large plant response rating (large crabgrass; [10]): 10
Surinam Grass plant response rating (0 to 100 scale) (Surinam grass; [6]): 20
Surinam Grass plant response rating (Surinam grass; [11]): 0
Plant response rating, Surinam Grass (Surinam grass; [9]): 100
Surinam Grass plant response rating (Surinam grass; [10]): 20
Morningglory plant response rating (0 to 100 scale) (morningglory; [6]): 0
Morningglory plant response rating (morningglory; [11]): 0
Plant response rating, Morningglory (morningglory; [9]): 30
Morningglory plant response rating (morningglory; [10]): 20
Sedge, Umbrella plant response rating [2]: 60
Barnyardgrass plant response rating (barnyardgrass [3]): 20
Rice plant response rating (0 to 100 scale) (rice [4]): 0
Plant response rating, Rice (rice [4]): 90
Rice plant response rating (rice [5]): 30
Oat, Wild plant response rating (wild oat; [11]): 10
Oat, Wild plant response rating (wild oat; [10]): 40
